{
  "source": "patent US4379158A",
  "about": "“Antisecretory imidazole amidine compounds, composition and method of use” (Yamanouchi Pharmaceutical Co., Ltd., priority 1977, dated 1983)",
  "key": {"[1]": {"target": "T1, Histamine H2-receptor (Cavia porcellus, UniProt P47747)", "T1 construct": "Atrial preparations isolated from guinea-pigs; from tissue; host or cells: isolated guinea-pig atria", "T1 sequence (P47747 whole entry)": "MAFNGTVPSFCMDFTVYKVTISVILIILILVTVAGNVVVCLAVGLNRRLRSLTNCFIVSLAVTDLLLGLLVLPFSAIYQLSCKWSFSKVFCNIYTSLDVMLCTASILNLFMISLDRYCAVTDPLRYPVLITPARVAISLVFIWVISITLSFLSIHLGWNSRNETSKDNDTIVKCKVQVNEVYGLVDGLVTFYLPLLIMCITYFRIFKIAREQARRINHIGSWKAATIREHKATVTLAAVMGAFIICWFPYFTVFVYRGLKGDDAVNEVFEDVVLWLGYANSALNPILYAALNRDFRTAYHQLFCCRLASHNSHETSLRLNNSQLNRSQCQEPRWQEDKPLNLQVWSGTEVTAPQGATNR", "experiment": "Histamine H2-receptor blocking activity of test compounds in isolated guinea-pig atria (histamine-induced tachycardia)", "assay_type": "cell-based, guinea-pigs", "conditions": "5×10^-6 M histamine, Krebs-Henseleit solution, 36° C., mean ± S.E. from 5 experiments, read-out: ED50 (dose producing a 50% blockade of chronotropic action of histamine)", "protocol": "Atrial preparations isolated from guinea-pigs were suspended in Krebs-Henseleit solution at 36° C. (Mitchell, I. et al. Europ. J. Pharmacol., 34, 95, 1975). The dose producing a 50% blockade of chronotropic action of 5×10^-6 M histamine was obtained from the dose-respose curve in which the inhibition percentage was plotted semilogarithmically against dose."}, "[2]": {"test_system": "gastric acid secretion", "experiment": "Effect of test compounds on gastric acid secretion in pylorus-ligated rats", "assay_type": "in vivo", "conditions": "50 mg/kg intraduodenal, immediately after pylorus ligation, 7 rats, mean ± S.E., *p < 0.01; for Gastric contents, Volume: control 3.2 ± 0.3; for Gastric contents, Acid output: control 380 ± 40.1", "protocol": "Rats weighing about 200 g. were deprived of food for 24 hours and their pylorus was ligated after an abdominal incision under ether anesthesia (Shay, H. et al.: Gastroenterol., 5, 43, 1945). Test compounds were intraduodenally given immediately after the pylorus ligation. The animals were sacrificed 4 hours after drug administration and gastric contents were collected. The gastric juice was titrated with 0.05 N NaOH to pH 7.0 for measurement of acidity."}, "[3]": {"test_system": "H2-receptor", "conditions": "Ash and Schild 1966; Black et al. 1972; cited from earlier work"}},
  "note": "Where a name gives a salt, the structure may show the parent alone.",
  "data": [
    {"compound": "C#CCN=C(N)CCSCc1nc[nH]c1C", "note": "[Example 40, N2-Propynyl-3-[(5-methylimidazol-4-yl)methylthio]-propionamidine dihydrochloride]", "values": [
      {"measurement": "IC50", "setting": "[1]", "value": 2300, "unit": "nM"}
    ]},
    {"compound": "CN(C)Cc1ccc(CSCCC(N)=NC#N)o1", "note": "[Example 41, NCyano-3-[5-(dimethylaminomethyl)furfurylthio]-propionamidine]", "values": [
      {"measurement": "IC50", "setting": "[1]", "value": 2100, "unit": "nM"},
      {"measurement": "Gastric contents, Volume", "setting": "[2]", "value": "1.5 ± 0.2", "unit": "ml/4 hours/rat"},
      {"measurement": "Gastric contents, Acid output", "setting": "[2]", "value": "97 ± 17.2", "unit": "μEq/4 hours/rat"}
    ]},
    {"compound": "C#CCN=C(N)CCSCc1ccc(CN(C)C)o1", "note": "[Example 42, 3-[5-(Dimethylaminomethyl)furfurylthio]-N2-propynylpropionamidine dihydrochloride]", "values": [
      {"measurement": "Gastric contents, Volume", "setting": "[2]", "value": "1.7 ± 0.3", "unit": "ml/4 hours/rat"},
      {"measurement": "Gastric contents, Acid output", "setting": "[2]", "value": "137 ± 31.5", "unit": "μEq/4 hours/rat"}
    ]},
    {"compound": "Cc1[nH]cnc1CSCCC(N)=NC(N)=O", "note": "[Example 44, N-carbamoyl-3-(4-methyl-5-imidazolylmethylthio)-propionamidine]", "values": [
      {"measurement": "IC50", "setting": "[1]", "value": 900, "unit": "nM"},
      {"measurement": "Gastric contents, Volume", "setting": "[2]", "value": "1.4 ± 0.2", "unit": "ml/4 hours/rat"},
      {"measurement": "Gastric contents, Acid output", "setting": "[2]", "value": "79 ± 9.0", "unit": "μEq/4 hours/rat"}
    ]},
    {"compound": "COc1ccc(CN(CCN(C)C)c2ccccn2)cc1", "note": "[mepyramine]", "values": [
      {"measurement": "inhibition/antagonism of the effects of histamine on gastric acid secretion and heart rate in isolated atrium (in words)", "setting": "[3]", "value": "not inhibited"}
    ]},
    {"compound": "C/N=C(\\S)NCCSCc1[nH]cnc1C", "note": "[metiamide]", "values": [
      {"measurement": "inhibition/antagonism of the effects of histamine on gastric acid secretion and heart rate in isolated atrium (in words)", "setting": "[3]", "value": "antagonized"}
    ]}
  ]
}
